Measured values as given in ChEMBL document CHEMBL5108052, “Histone Deacetylase and Enhancer of Zeste Homologue 2 Dual Inhibitors Presenting a Synergistic Effect for the Treatment of Hematological Malignancies” (J Med Chem, 2022).

Columns and labels:
[1] = test system: HL-60; details: time 72 hrs
[2] = test system: SU-DHL10; assay: cells; details: Homo sapiens, SU-DHL10, 72 h
[3] = test system: MV4-11; assay: cells; details: Homo sapiens, MV4-11, 72 h
[4] = organism: Homo sapiens; details: time 90.0 sec
[5] = test system: HCT-116; details: time 72 hrs
[6] = test system: MV4-11; assay: animal or person; format: functional, Homo sapiens; details: Mus musculus, MV4-11, 480 h, route ip, time 20 day, read-out: TGI
[7] = test system: SU-DHL10; details: time 72 hrs
[8] = test system: MV4-11; details: time 72 hrs
[9] = test system: MDA-MB-231; details: time 72 hrs
[10] = test system: HCT-116; assay: cells; details: Homo sapiens, HCT-116, 72 h
[11] = test system: MDA-MB-231; assay: cells; details: Homo sapiens, MDA-MB-231, 72 h
[12] = Binding affinity to recombinant PRC2 complex (unknown origin) incubated for 90 seconds by surface plasmon resonance assay; parameters: species or system Homo sapiens
[13] = test system: HL-60; assay: cells; details: Homo sapiens, HL-60, 72 h
[14] = Metabolic stability in human liver microsomes assessed as half life measured after 5 mins in presence of NADPH and UDPGA by LC-MS/MS analysis; format: ADME, Microsome
[15] = molecular target: T1, Protein deacetylase HDAC6 (Homo sapiens, UniProt Q9UBN7); assay: Inhibition of HDAC6 (unknown origin) preincubated for 5 mins followed by substrate addition and measured after 30 mins by multimode microplate reader analysis
T1 sequence (Q9UBN7 whole entry): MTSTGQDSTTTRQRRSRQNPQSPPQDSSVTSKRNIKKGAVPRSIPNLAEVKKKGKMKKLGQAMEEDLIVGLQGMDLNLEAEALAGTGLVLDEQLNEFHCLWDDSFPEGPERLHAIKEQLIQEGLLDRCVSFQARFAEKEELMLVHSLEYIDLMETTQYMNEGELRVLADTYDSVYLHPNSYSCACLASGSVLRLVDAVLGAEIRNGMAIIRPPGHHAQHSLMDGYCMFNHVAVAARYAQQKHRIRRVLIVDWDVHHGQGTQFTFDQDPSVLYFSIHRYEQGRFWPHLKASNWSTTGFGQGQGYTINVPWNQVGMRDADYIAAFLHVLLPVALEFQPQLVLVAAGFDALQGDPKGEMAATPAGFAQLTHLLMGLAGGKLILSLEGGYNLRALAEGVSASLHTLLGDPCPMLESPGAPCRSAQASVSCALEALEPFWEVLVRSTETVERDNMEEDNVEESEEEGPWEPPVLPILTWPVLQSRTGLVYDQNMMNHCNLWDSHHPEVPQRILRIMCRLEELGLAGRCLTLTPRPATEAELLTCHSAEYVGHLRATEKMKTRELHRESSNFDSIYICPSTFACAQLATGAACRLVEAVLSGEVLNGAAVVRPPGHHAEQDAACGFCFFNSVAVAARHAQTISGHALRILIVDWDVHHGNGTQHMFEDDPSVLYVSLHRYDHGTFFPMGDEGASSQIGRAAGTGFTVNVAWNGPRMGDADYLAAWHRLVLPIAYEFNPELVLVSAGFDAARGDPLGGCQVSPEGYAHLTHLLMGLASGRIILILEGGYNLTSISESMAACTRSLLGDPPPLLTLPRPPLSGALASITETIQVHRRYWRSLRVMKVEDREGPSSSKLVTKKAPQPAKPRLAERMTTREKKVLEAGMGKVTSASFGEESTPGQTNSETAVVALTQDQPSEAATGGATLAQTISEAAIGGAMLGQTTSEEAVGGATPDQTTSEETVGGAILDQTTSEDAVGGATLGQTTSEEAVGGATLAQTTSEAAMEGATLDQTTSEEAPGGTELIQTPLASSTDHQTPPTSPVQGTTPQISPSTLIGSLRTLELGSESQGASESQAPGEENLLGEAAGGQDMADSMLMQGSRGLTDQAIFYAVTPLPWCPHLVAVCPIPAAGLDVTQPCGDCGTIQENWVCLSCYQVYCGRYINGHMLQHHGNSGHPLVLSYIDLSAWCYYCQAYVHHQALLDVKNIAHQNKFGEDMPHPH

[16] = Binding affinity to recombinant PRC2 complex (unknown origin) assessed as dissociation rate constant incubated for 90 seconds by surface plasmon resonance assay; parameters: species or system Homo sapiens
[17] = molecular target: Histone deacetylase 1 (Homo sapiens, UniProt Q13547); assay: Inhibition of HDAC1 (unknown origin) preincubated for 5 mins followed by substrate addition and measured after 30 mins by multimode microplate reader analysis
Histone deacetylase 1, sequence (Q13547 whole entry): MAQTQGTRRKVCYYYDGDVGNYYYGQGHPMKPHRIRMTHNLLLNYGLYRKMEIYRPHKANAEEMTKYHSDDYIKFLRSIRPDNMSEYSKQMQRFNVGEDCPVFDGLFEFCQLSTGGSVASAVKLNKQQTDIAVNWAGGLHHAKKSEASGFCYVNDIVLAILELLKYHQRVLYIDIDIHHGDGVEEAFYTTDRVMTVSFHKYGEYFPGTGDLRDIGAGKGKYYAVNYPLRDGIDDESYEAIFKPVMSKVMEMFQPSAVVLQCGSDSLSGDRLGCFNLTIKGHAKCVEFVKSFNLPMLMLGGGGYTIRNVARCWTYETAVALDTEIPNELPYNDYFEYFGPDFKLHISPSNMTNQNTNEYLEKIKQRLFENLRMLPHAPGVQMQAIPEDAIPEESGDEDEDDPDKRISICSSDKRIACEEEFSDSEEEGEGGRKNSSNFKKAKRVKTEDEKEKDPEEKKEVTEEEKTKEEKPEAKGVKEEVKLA

| SMILES | IC50 [2] [µM] | IC50 [3] [µM] | Ka [4] | IC50 [10] [µM] | IC50 [11] [µM] | Kd [12] [µM] | IC50 [13] [µM] | half-life [14] [min] | IC50 [15] [µM] | koff [16] [s⁻¹] | IC50 ([17]; time 35.0 min) [µM] | IC50 [17] [µM] | CI [1] | CI [5] | inhibition in vivo at 100 mg/kg [6] [%] | CI [7] | CI [8] | CI [9] |
| --- | --- | --- | --- | --- | --- | --- | --- | --- | --- | --- | --- | --- | --- | --- | --- | --- | --- | --- |
| CC[C@@H](C)n1cc(C)c2c(C(=O)NCc3c(C)cc(C)[nH]c3=O)cc(-c3ccc(N4CCNCC4)nc3)cc21 | 7.22 | 5.15 | 2.52 10^4/M/s | 8.86 | 15.2 | 0.073 | 12 |  |  |  |  |  | 0.65 | 0.91 | 52.7 | 0.8 | 0.38 | 1.2 |
| Cc1cc(C)c(CNC(=O)c2cc(-c3ccc(N4CCN(c5ncc(C(=O)Nc6ccccc6N)cn5)CC4)nc3)cc3c2cnn3C(C)C)c(=O)[nH]1 |  |  |  |  |  |  |  | 17.7 |  |  |  |  |  |  |  |  |  |  |
| Cc1cc(C)c(CNC(=O)c2cc(-c3ccc(N4CCN(C(C)C)CC4)nc3)cc3c2cnn3C(C)C)c(=O)[nH]1 | > 20 | 11.1 |  | > 20 | > 20 | 0.021 | > 20 |  |  |  |  |  | 0.77 | 0.89 |  | 0.78 | 0.43 | 1.6 |

The next lines start with results.

| IC50 [2] [µM] | IC50 [3] [µM] | Ka [4] | IC50 [10] [µM] | IC50 [11] [µM] | Kd [12] [µM] | IC50 [13] [µM] | half-life [14] [min] | IC50 [15] [µM] | koff [16] [s⁻¹] | IC50 ([17]; time 35.0 min) [µM] | IC50 [17] [µM] | SMILES | CI [1] | CI [5] | inhibition in vivo at 100 mg/kg [6] [%] | CI [7] | CI [8] | CI [9] |
| --- | --- | --- | --- | --- | --- | --- | --- | --- | --- | --- | --- | --- | --- | --- | --- | --- | --- | --- |
| 1.52 | 4.75 |  | 5.11 | 6.83 | 1.37 | 2.05 |  | 1.95 | 0.099 | 2.05 |  | Cc1cc(C)c(CNC(=O)c2cc(-c3ccc(N4CCN(C(=O)OC(C)(C)C)CC4)nc3)cc(NCCCCCCCC(=O)NO)c2C)c(=O)[nH]1 |  |  |  |  |  |  |
| 2.02 | 0.74 |  | 3.74 | 5.33 | 0.075 | 0.86 |  | 2.81 | 0.0078 |  | > 10 | CC[C@@H](C)n1cc(C)c2c(C(=O)NCc3c(C)cc(C)[nH]c3=O)cc(-c3ccc(N4CCN(CCCCCCCCC(=O)NO)CC4)nc3)cc21 |  |  |  |  |  |  |
| 12.9 | 17.7 |  | > 20 | > 20 | 0.28 | 17.8 |  | 1.23 | 0.16 | 5.82 |  | C=C(CCCCCNc1cc(-c2ccc(N3CCN(C(=O)OC(C)(C)C)CC3)nc2)cc(C(=O)NCc2c(C)cc(C)[nH]c2=O)c1C)NO |  |  |  |  |  |  |
